Laboratory results taken from PMC9154192 (PLoS Biology, 2022).
≈ marks a conversion by molar mass, not a printed value. Where “and” joins values, the source holds several entries; their conditions need not be identical. Equal values may be shown once. Read-outs that look alike come from different tables or passages of the source.

Assays:
M. tuberculosis H37Rv [1] = experiment: microbe, parasite or virus in culture; format: cell-based, Mycobacterium tuberculosis
M. tuberculosis H37Rv [2] = format: cell-based, Mycobacterium tuberculosis; details: for RFU/200 μl (replicates1-3), single values / RFU/ml (×104) / RFU/200 μl (average): Fig 2A; for concentration with significant antitubercular effect: fluorescence-based assay
M. tuberculosis H37Rv [3] = format: in vivo, BALB/c mice; set-up: Efficacy in BALB/C mouse model of pulmonary tuberculosis, Average / Efficacy in BALB/C mouse model of pulmonary tuberculosis, values of mice 1-6: unit not given here
in vitro = format: cell-based, murine; details: mouse
Summary of the method: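 MTT and WST-1 viability read-outs; cytotoxicity testing per earlier published protocols.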

intestinal microbiome = experiment: Gut microbiome, 16s rRNA gene-based metagenomics analysis of feces; format: in vivo, BALB/c mice; details: 30 mg/kg oral once a day for 7 days, BALB/c mice, feces
Protocol: Six-week-old BALB/c female mice were used for this study (6 mice for each group). Each drug was administered orally at 30 mg/kg once daily for 7 days. Stool was collected, and 16 rRNA gene-based metagenomics analysis was performed. Corn oil was used as the vehicle. The drug-free group received corn oil only. This animal experiment was conducted with the approval of the IACUC of the Soonchunhyang University (approval number: SCH21-0011). Microbiome analysis of collected feces was carried out as previously described with some modifications. Total DNA was extracted from the stool using the QIAamp DNA stool mini kit (Qiagen, Germany) after mechanical disruption using lysing matrix B tubes (MP Biomedicals, USA). V4 region of 16S RNA gene was amplified from extracted DNA with the following primers: forward primer ([…]) and reverse primer ([…]). PCR was performed using the Kappa HiFi hot start kit (KAPA Biosystems, USA) for 16s gene amplification and library preparation. A dsDNA HS assay kit and Qubit 4 fluorimeter (Invitrogen, USA) were used for DNA quantification. After each step, quality was checked using Agilent High Sensitivity DNA Kit and Agilent Bioanalyzer 2100 (Agilent Technologies, USA). Clean-up was performed using AMPure XP beads (Beckman Coulter, UK). The metagenomic library was prepared using a Nextera XT DNA Library Prep Kit (Illumina, USA) and loaded into an iSeq-100 reagent cartridge (Illumina, USA) together with a PhiX Control library (Illumina, USA). A 300-bp paired-end sequencing was performed on an iSeq-100 platform (Illumina, USA). Sequencing data were analyzed using the EzBioCloud server (Chunlab, Korea).

M. abscessus = experiment: microbe, parasite or virus in culture; format: cell-based, Mycobacterium abscessus; details: Mycobacteroides abscessus
M. avium = experiment: microbe, parasite or virus in culture; format: cell-based; details: Mycobacterium avium
M. bolletii = experiment: microbe, parasite or virus in culture; format: cell-based, Mycobacterium bolletii; details: Mycobacteroides abscessus
M. bovis = experiment: microbe, parasite or virus in culture; format: cell-based; details: Mycobacterium tuberculosis variant bovis
M. goodie = experiment: microbe, parasite or virus in culture; format: cell-based; details: Mycobacterium
M. heraklionease = experiment: microbe, parasite or virus in culture; format: cell-based; details: Mycobacterium
M. intracellulare = experiment: microbe, parasite or virus in culture; format: cell-based; details: Mycobacterium intracellulare
M. massiliense = experiment: microbe, parasite or virus in culture; format: cell-based, Mycobacterium massiliense; details: Mycobacteroides abscessus
M. neoaurum = experiment: microbe, parasite or virus in culture; format: cell-based, Mycobacterium neoaurum; details: Mycolicibacterium neoaurum
M. phlei = experiment: microbe, parasite or virus in culture; format: cell-based, Mycobacterium phlei; details: Mycolicibacterium phlei
M. phocaicum = experiment: microbe, parasite or virus in culture; format: cell-based, Mycobacterium phocaicum; details: Mycolicibacterium phocaicum
M. smegmatis = experiment: microbe, parasite or virus in culture; format: cell-based, Mycobacterium smegmatis; details: Mycolicibacterium smegmatis
M. szulgai = experiment: microbe, parasite or virus in culture; format: cell-based; details: Mycobacterium szulgai
M. xenopi = experiment: microbe, parasite or virus in culture; format: cell-based; details: Mycobacterium xenopi
Trichophyton rubrum = experiment: Broth dilution MIC (CLSI); format: cell-based; details: read-out: MIC
M. tuberculosis H37Ra = experiment: microbe, parasite or virus in culture; format: cell-based, Mycobacterium tuberculosis; details: Mycobacterium tuberculosis, H37RA
[4] = Mycobacterium tuberculosis, H37RV, read-out: MIC
[5] = drug conc. 0.39, average of each replicate set
[6] = drug conc. 0.78, average of each replicate set

| SMILES | MIC (M. tuberculosis H37Rv [1]; [4]) | RFU/200 μl (replicates1-3), single values (M. tuberculosis H37Rv [2]; drug conc. 0.39) | RFU/ml (×104) (M. tuberculosis H37Rv [2]; drug conc. 0.39) | RFU/200 μl (average) (M. tuberculosis H37Rv [2]; [5]) | RFU/200 μl (replicates1-3), single values (M. tuberculosis H37Rv [2]; drug conc. 0.78) | RFU/ml (×104) (M. tuberculosis H37Rv [2]; drug conc. 0.78) | RFU/200 μl (average) (M. tuberculosis H37Rv [2]; [6]) | concentration with significant antitubercular effect (M. tuberculosis H37Rv [2]) | Efficacy in BALB/C mouse model of pulmonary tuberculosis, Average (M. tuberculosis H37Rv [3]; Fig 4C, group dose 30, 6 mice) | CC50 (in vitro; L929) | CC50 (in vitro; Raw264.7) | beta set-significance analysis, pair-wise comparison of gut microbiome (intestinal microbiome) | difference in phylum or class level taxa compared to drug-free group (intestinal microbiome) | phylogenetic diversity compared to drug-free control group (intestinal microbiome) | MIC (M. abscessus) | MIC (M. avium) | MIC (M. bolletii) | MIC (M. bovis) | MIC (M. goodie) | MIC (M. heraklionease) | further results |
| --- | --- | --- | --- | --- | --- | --- | --- | --- | --- | --- | --- | --- | --- | --- | --- | --- | --- | --- | --- | --- | --- |
| NNC(=O)c1ccncc1 [INH, isoniazid, reference compound] | 0.4 µg/mL (≈ 2.92 µM) | 12610 RFU/200 μl and 12620 RFU/200 μl and 10050 RFU/200 μl and 11010 RFU/200 μl and 12080 RFU/200 μl and 10560 RFU/200 μl and 10740 RFU/200 μl and 10520 RFU/200 μl and 12650 RFU/200 μl | 5.7 RFU/ml (×104) | 11047 RFU/200 μl and 10607 RFU/200 μl and 12627 RFU/200 μl | 7570 RFU/200 μl and 7470 RFU/200 μl and 7230 RFU/200 μl and 7160 RFU/200 μl and 7680 RFU/200 μl and 7340 RFU/200 μl and 7150 RFU/200 μl and 7460 RFU/200 μl and 7540 RFU/200 μl | 3.7 RFU/ml (×104) | 7357 RFU/200 μl and 7317 RFU/200 μl and 7527 RFU/200 μl | 0.78 µg/mL and 0.39 µg/mL | 226667 | > 500 µg/mL | > 500 µg/mL | not significant | did not significantly differ | no significant change | > 100 µg/mL | 25 µg/mL (≈ 182 µM) | > 100 µg/mL | 0.2 µg/mL (≈ 1.46 µM) | 25 µg/mL (≈ 182 µM) | > 100 µg/mL | RFU/200 μl (replicates1-3), single values (M. tuberculosis H37Rv [2]; drug conc. 0.19): 54850 RFU/200 μl and 54780 RFU/200 μl and 48860 RFU/200 μl and 48850 RFU/200 μl and 51920 RFU/200 μl and 53630 RFU/200 μl and 53710 RFU/200 μl and 53510 RFU/200 μl and 54820 RFU/200 μl; RFU/ml (×104) (M. tuberculosis H37Rv [2]; drug conc. 0.19): 26.4 RFU/ml (×104); RFU/200 μl (average) (M. tuberculosis H37Rv [2]; drug conc. 0.19, average of each replicate set): 49877 RFU/200 μl and 53617 RFU/200 μl and 54817 RFU/200 μl; MIC (M. intracellulare): 25 µg/mL (≈ 182 µM); MIC (M. massiliense): 12.5 µg/mL (≈ 91.1 µM); MIC (M. neoaurum): 3.1 µg/mL (≈ 22.6 µM); MIC (M. phlei): > 100 µg/mL; MIC (M. phocaicum): > 100 µg/mL; MIC (M. smegmatis): 25 µg/mL (≈ 182 µM); MIC (M. szulgai): 1.6 µg/mL (≈ 11.7 µM); MIC (M. xenopi): 1.6 µg/mL (≈ 11.7 µM); MIC (Trichophyton rubrum): > 100 µg/mL |
| CCCCOc1ccc2cc(CN3C(=O)CC[C@H]3C(=O)OC)c3cc(OC)c(OC)cc3c2c1 [PP2S, Methyl (S)-1-((3-butoxy-6,7-dimethoxyphenanthren-9-yl)methyl)-5-oxopyrrolidine-2-carboxylate] | 0.8 µg/mL (≈ 1.72 µM) | 54850 RFU/200 μl and 54820 RFU/200 μl and 52200 RFU/200 μl and 52110 RFU/200 μl and 58720 RFU/200 μl and 54260 RFU/200 μl and 54210 RFU/200 μl and 54470 RFU/200 μl and 54870 RFU/200 μl | 27.3 RFU/ml (×104) | 54343 RFU/200 μl and 54313 RFU/200 μl and 54847 RFU/200 μl | 20330 RFU/200 μl and 20390 RFU/200 μl and 21500 RFU/200 μl and 21380 RFU/200 μl and 21640 RFU/200 μl and 20670 RFU/200 μl and 20960 RFU/200 μl and 20360 RFU/200 μl and 20370 RFU/200 μl | 10.4 RFU/ml (×104) | 21507 RFU/200 μl and 20663 RFU/200 μl and 20363 RFU/200 μl | 1.56 µg/mL and 0.78 µg/mL | 3133333 | > 500 µg/mL | > 500 µg/mL | not significant | did not significantly differ | no significant change | > 100 µg/mL | > 100 µg/mL | > 100 µg/mL | 0.8 µg/mL (≈ 1.72 µM) | > 100 µg/mL | > 100 µg/mL | MIC (M. tuberculosis H37Rv [1]): 0.4 µg/mL (≈ 0.859 µM); in vitro antitubercular activities (S-form vs R-form) (M. tuberculosis H37Rv [1]): had in vitro antitubercular activities; MIC (M. tuberculosis H37Ra): 0.4 µg/mL (≈ 0.859 µM); RFU/200 μl (replicates1-3), single values (M. tuberculosis H37Rv [2]; drug conc. 1.56): 8330 RFU/200 μl (2×) and 8470 RFU/200 μl and 8750 RFU/200 μl and 8670 RFU/200 μl and 8690 RFU/200 μl and 8240 RFU/200 μl and 8320 RFU/200 μl and 8390 RFU/200 μl; RFU/ml (×104) (M. tuberculosis H37Rv [2]; drug conc. 1.56): 4.2 RFU/ml (×104); RFU/200 μl (average) (M. tuberculosis H37Rv [2]; drug conc. 1.56, average of each replicate set): 8703 RFU/200 μl and 8297 RFU/200 μl and 8397 RFU/200 μl; Efficacy in BALB/C mouse model of pulmonary tuberculosis, values of mice 1-6 (M. tuberculosis H37Rv [3]; Fig 4C, group dose 30): 3500000 and 3600000 and 2100000 and 2300000 and 3900000 and 3400000; Efficacy in BALB/C mouse model of pulmonary tuberculosis, Average (M. tuberculosis H37Rv [3]; Fig 4C, group dose 100, 6 mice): 550000; bacterial burden in the lungs compared to control group (M. tuberculosis H37Rv [3]; mouse, in vivo, po): significantly reduced; MIC (M. intracellulare): > 100 µg/mL; MIC (M. massiliense): > 100 µg/mL; MIC (M. neoaurum): > 100 µg/mL; MIC (M. phlei): > 100 µg/mL; MIC (M. phocaicum): > 100 µg/mL; MIC (M. smegmatis): > 100 µg/mL; MIC (M. szulgai): > 100 µg/mL; MIC (M. xenopi): > 100 µg/mL; MIC (Trichophyton rubrum): > 100 µg/mL |
